Data from patent US5145844A, “Methods of using hydroxy-, alkoxy- and benzyloxy-substituted phospholipids to treat phospholipase A2 -mediated conditions and to alleviate pain” (Hoechst-Roussel Pharmaceuticals Incorporated, priority 1991, dated 1992).
Counter-ions that a name gives are not always drawn.

System: phenyl-para-quinone induced writhing
Assay: phenyl-para-quinone writhing assay in mice (Analgesic PQW)
Assay type: in vivo
Settings: 20 mg/kg, s.c.
Description: The compounds of the present invention are also useful as analgesic agents due to their ability to alleviate pain in mammals. […] Exptl. Biol. Med., 95, 729 (1957)]. Presented in Table 2 is the analgesic effect of some of the compounds of the invention expressed as either the subcutaneous dose at which 50% of the phenyl-para-quinone induced writhing is inhibited in the animals, i.e., the ED50 value, or at the % decrease in writhing at a give dose.

With C[N+](C)(C)CCOP(=O)([O-])OCCCC(O)CCCCCCCCCOc1ccccc1 (stereo not shown) [4,9-Dihydroxy-N,N,N-trimethyl-3,5-dioxa-18-phenoxy-4-phosphaoctadecan-1-aminium, 4-oxide, hydroxide, inner salt dihydrate] the “Analgesic PQW % Inhibition of Writhing” value was 48%.

For CCCCCCCCCCCCCCCC(O)CCCOP(=O)([O-])OCC[N+]1(C)CCCC1 (stereo not shown) [4,9-Dihydroxy-N-methyl-3,5-dioxa-4-phosphatetetracosan-1-pyrrolidinium, 4-oxide, hydroxide, inner salt 3.5 hydrate], the “Analgesic PQW % Inhibition of Writhing” value was 62%.

With CCCCCCCCCC(CCCOP(=O)([O-])OCC[N+](C)(C)C)OCc1ccccc1 (stereo not shown) [4-Hydroxy-N,N,N-trimethyl-9-phenylmethoxy-3,5-dioxa-4-phosphaoctadecan-1-aminium, 4-oxide, hydroxide, inner salt monohydrate] the “Analgesic PQW % Inhibition of Writhing” value was 83%.

In the case of CCCCCCCCCCCCCCCC(CCCOP(=O)([O-])OCC[N+](C)(C)C)OCc1ccccc1 (stereo not shown) [4-Hydroxy-N,N,N-trimethyl-9-phenylmethoxy.3,5-dioxa-4-phosphatetracosan-1-aminium, 4-oxide, hydroxide, inner salt monohydrate], the “Analgesic PQW % Inhibition of Writhing” value is reported as 36%.
